The text below walks through data of patent US5620973A, “Tetracyclic condensed heterocyclic compounds and their use” (priority 1993, dated 1997).

Counter-ions that a name gives are not always drawn. Like-named read-outs stand apart in the source and are kept apart here.

The conditions of data set [1]: cited from earlier work; for anti-senile dementia activity: Int. J. Clin. Pharmacol. Ther. Toxicol. 29, 23-37, 1991.
For another data set, the target named is T1, Acetylcholinesterase (Rattus norvegicus, UniProt P37136).
T1 construct: using the S1 fraction of a male Wistar rat cerebral cortex homogenate as a source of cholinesterase; from tissue; host or cells: male Wistar rat cerebral cortex homogenate, S1 fraction
T1 sequence (P37136 32-614): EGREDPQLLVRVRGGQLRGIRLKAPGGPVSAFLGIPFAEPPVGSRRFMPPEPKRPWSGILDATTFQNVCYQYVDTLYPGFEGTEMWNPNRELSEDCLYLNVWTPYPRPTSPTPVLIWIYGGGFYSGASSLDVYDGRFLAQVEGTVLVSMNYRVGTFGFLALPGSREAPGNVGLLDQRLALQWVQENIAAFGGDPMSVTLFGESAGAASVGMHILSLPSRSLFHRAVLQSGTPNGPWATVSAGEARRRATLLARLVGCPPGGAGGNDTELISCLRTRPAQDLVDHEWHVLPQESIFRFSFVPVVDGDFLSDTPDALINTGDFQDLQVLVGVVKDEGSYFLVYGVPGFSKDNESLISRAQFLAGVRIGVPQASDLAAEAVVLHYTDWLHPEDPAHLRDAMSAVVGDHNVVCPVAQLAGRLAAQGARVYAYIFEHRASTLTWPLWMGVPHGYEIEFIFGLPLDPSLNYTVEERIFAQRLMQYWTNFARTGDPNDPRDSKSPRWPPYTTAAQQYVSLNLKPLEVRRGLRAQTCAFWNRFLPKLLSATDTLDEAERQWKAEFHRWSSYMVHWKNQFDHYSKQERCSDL
Put plainly: biochemical. Also noted: species or system male Wistar rat.

Data set [2] has as its system serotonin (5-HT) reuptake. Put plainly: monoamine reuptake inhibitory activity, [^3 H]-serotonin (5-HT). The class given is biochemical, male JCl: Wistar rats. The note with it: [^3 H]-5-HT 10 nM; P2 pellet of rat cerebral cortex and hippocampus; 37° C., 5 minutes; read-out: Monoamine uptake inhibitory activity IC50, 5-HT. On the procedure:
(§1) The monoamine reuptake inhibitory activity of the compound of this invention was evaluated using [^3 H]-norepinephrine (NE) and [^3 H]-serotonin(5-HT).
(§2) Thus, the brain was enuleated from male JCl: Wistar rats (aged 9-13 weeks) and the cerebral cortex and the hippocampus were isolated. The tissue was homogenized (Potter, 5 strokes) with about 10-15 volumes of ice-cooled 0.32M sucrose and centrifuged at 1.000×g for 10 minutes. The supernatant was further centrifuged at 20,000×g for 20 minutes to provide a pellet (P2). This pellet was suspended in Krebs-Ringer bicarbonate solution (KRB) (KRB: 116 mM NaCl, 4.8 mM KCl, 1.3 mM CaCl2, 1,2 mM MgSO4, 1,2 mM NaH2 PO4, 25 mM NaHCO3, 0.1 mM EDTA-2Na, 11.1 mM D-glucose, 0.11 mM L-ascorbic acid, 0.01 mM pargyline-HCl; 95% O2 /5% CO2) and aliquots of the suspension were used for assays.
(§3) The test compound (10 μl as dissolved in DMSO at 100 times the final concentration) was mixed with 900 μl of the P2 suspension and the mixture was preincubated at 37° C. for 5 minutes. Then, 100 μl of [^3 H]-NE (final concentration 11 nM) or [^3 H]-5-HT (final concentration 10 nM) was added and the mixture was incubated at 37° C. for 5 minutes. […] The filter was transferred to a minature vial, 4 ml of scintillator was added, and the radioactivity was counted with a liquid scintillation counter. […]

The subject of data set [3] is norepinephrine (NE) reuptake. Put plainly: monoamine reuptake inhibitory activity, [^3 H]-norepinephrine (NE). Format: biochemical, male JCl: Wistar rats. Conditions: [^3 H]-NE 11 nM; P2 pellet of rat cerebral cortex and hippocampus; 37° C., 5 minutes; read-out: Monoamine uptake inhibitory activity IC50, NE. How it is done:
as §1, §2, §3

Setting [4] is: S1 fraction of male Wistar rat cerebral cortex homogenate, 30 minutes incubation, read-out: Acetylcholinesterase inhibitory activity IC50.

Procedure for Acetylcholinesterase: The cholinesterase inhibitory activity of the compound of this invention was evaluated using (acetyl[[^3 H])-acetylcholine. Thus, using the S1 fraction of a male Wistar rat cerebral cortex homogenate as a source of cholinesterase, (acetyl[^3 H])-acetylcholine as a substrate, and the compound of this invention as a test substance, the system was incubated for 30 minutes. The reaction was then stopped and a toluenic scincillator was added. After shaking, [^3 H]-acetic acid produced and transferred into the toluene layer was counted with a liquid scincillation counter to estimate the cholinesterase inhibitory activity of the test substance.

`CNC(=O)Oc1ccc2c(c1)[C@]1(C)CCN(C)[C@@H]1N2C` (stereo in doubt) [Physostigmine, physostigmine]: in data set [1], the anti-senile dementia activity entry was “have been found to have anti-senile dementia activity”. In data set [1] (background), the duration of action result is “short duration of action” and the toxic potential entry is listed as “high toxic potential”.
With `O=C(CCN1CCN(Cc2ccccc2)CC1)c1cc2c3c(c1)C1CCCCC1N3C(=O)CC2` (stereo not drawn) [Example 1, 5-[3-[4-(Phenylmethyl)-1-piperazinyl]-1-oxopropyl]-2,3,6b,7,8,9,10,10a-octahydro-1H-pyrido[3,2,1-jk]carbazol-6-one dihydrochloride], the IC50 (commonly the concentration needed to halve the response being measured) at Acetylcholinesterase (setting [4]) worked out at 77.5 nM.
For `O=C(CCN1CCN(Cc2ccccc2)CC1)c1ccc2c(c1)CN1C(=O)c3ccccc3C1CC2` (stereo not drawn) [Example 2-1], the half-maximal inhibitory concentration (IC50) in data set [2] was 70 nM; in data set [3], 1040 nM; on Acetylcholinesterase (setting [4]), 16.4 nM.
Compound `O=C(CCC1CCN(Cc2ccccc2)CC1)c1ccc2c(c1)CN1C(=O)c3ccccc3C1CC2` (stereo not drawn) [Example 4, 3-[3-[1-(Phenylmethyl)-4-piperidinyl]-1-oxopropyl]-7,11b,12,13-tetrahydro-5H-isoindolo[2,1-b][2]benzazepin-7-one hydrochloride] showed an IC50 against Acetylcholinesterase of 2.4 nM.
`O=C(CCN1CCN(Cc2cccc(Cl)c2)CC1)c1ccc2c(c1)CN1C(=O)c3ccccc3C1CC2` (stereo not drawn) [Example 6-2]: the IC50 on Acetylcholinesterase (setting [4]) turned out to be 65.5 nM.
Still for that read-out and setting: the same measure for `O=C(CCN1CCN(Cc2cccc(F)c2)CC1)c1ccc2c(c1)CN1C(=O)c3ccccc3C1CC2` (stereo not drawn) [Example 6-3]: 17.4 nM.
Consider `O=C(CCC1CCN(Cc2ccccc2)CC1)c1cc2c3c(c1)C1CCCCC1N3C(=O)CC2` (stereo not drawn) [Example 7, 5-[3-[1-(Phenylmethyl)-4-piperidinyl]1-oxopropyl]-2,3,6b, 7,8,9,10,10a-octahydro-1H-pyrido[3,2,1-jk]carbazol-6-one fumarate], for which, on Acetylcholinesterase, the IC50 is 7.93 nM.
Take `CN(C)CCCN1c2ccccc2CCc2ccccc21` [Imipramine, imipramine, reference compound]: the IC50 in data set [2] was 63 nM; in data set [3], 1120 nM.
For `Nc1c2c(nc3ccccc13)CCCC2` [THA, tacrine], the anti-senile dementia activity entry in data set [1] is “have been found to have anti-senile dementia activity”. In addition, the hepatic impairment entry in data set [1] (background) is recorded as “severe hepatic impairment is often associated”.
